Source: patent publication US20260219274A1, “POLYOL SWEETNERS AND CARDIOVASCULAR AND THROMBOTIC EVENT RISK” (THE CLEVELAND CLINIC FOUNDATION, priority 2023, published 2026)

Experiments:
dogs = details: dog, in vivo; cited from earlier work
[1] = system: patients undergoing elective diagnostic coronary angiography (European cohort); assay: European validation cohort: LC/MS/MS serum erythritol vs 3-year MACE; assay type: in vivo, human
From the text: In a third clinical study (the European Cohort, n=833), serum erythritol levels were quantified by stable isotope dilution LC/MS/MS in samples from sequential patients undergoing elective diagnostic coronary angiography due to (suspected) chronic coronary syndromes enrolled in the observational LipidCardio study between 2016-2018 at the Charité University Hospital, Campus Benjamin Franklin (registered under German Clinical Trial Register (drks.de); identifier: DRKS00020915) with a follow-up for 3 years^49. As a quaternary referral center, Charité University Hospital is centrally located in Europe, and subjects enrolled in the LipidCardio study have large geographic catchment, with residences throughout Europe. eGFR was calculated via CKD-MDRD equation^48. For the European validation cohort, there was a total of 833 samples available with MACE outcome data. All samples were used for the erythritol LC/MS/MS measurement.
Stable-isotope-dilution LC/MS/MS was used for quantification of erythritol, threitol, and 1,5-AHG in human and mouse plasma. Ice cold methanol (800 μL) and internal standards (D6-erythitol and ^13C6-1,5-AHG) were added to the plasma samples (20 μL), followed by vortexing and centrifuging (21,000×g; 4° C. for 15 min). The clear supernatant (800 μL) was transferred into a clean, labeled glass tubes (Borosilicate glass 12×75 mm) and dried in a speed vacuum concentrator (Speed vac plus, SC210, Thermo Sevant). The dry residue was reconstituted in acetic anhydride (100 μL) and 4-Dimethylaminopyridine (DMAP) in pyridine (100 μL; 1 mg/mL), sealed with safety caps, vortexed and heated (45 min at 80° C.) followed with drying under nitrogen. Dried residues were dissolved in HCl in water (0.1 M; 0.5 mL) and extracted with ethyl acetate (2 mL). Ethyl acetate layer was transferred into a clean glass tubes (Borosilicate glass 12×75 mm) and dried under nitrogen. The dry residue was reconstituted in ammonium formate in a mixture of methanol:water (100 μL; 50:50 v/v with 10 mM ammonium formate), tubes were vortexed and liquid was transferred to glass vials with micro-insets and caped. LC/MS/MS analysis was performed on a chromatographic system consisting of two Shimadzu LC-30 AD pumps (Nexera X2), a CTO 20AC oven operating at 30° C., and a SIL-30 AC-MP autosampler in tandem with a triple quadruple mass spectrometer (8050 series, Shimadzu Scientific Instruments, Inc., Columbia, MD, USA). For chromatographic separation, a Kinetex C18 column (50 mm×2.1 mm; […]) (Cat #00B-4462-AN, Phenomenex, Torrance, CA) was used. […] Electrospray ionization in the positive mode was used with multiple reaction monitoring (MRM) for detection of endogenous and stable isotope labeled internal standards. The following transitions were used: m/z 308.0 [M+4xC2OH2+NH4]^+→231.0 for threitol and erythritol, m/z 314.0 [M+4xC2OH2+NH4]^+→237.0 for D6-erythritol; m/z 360.1 [M+4xC2OH2+NH4]^+→273.3 for 1,5AHG; […] [M+4xC2OH2+NH4]^+→279.3 for ^13C6-1,5-AHG; The following ion source parameters were applied: nebulizing gas flow, 3 l/min; heating gas flow, 10 L/min; interface temperature, 300° C.; desolvation line temperature, 250° C.; heat block temperature, 400° C.; and drying gas flow, 10 L/min. Limit of detection (LOD) and limit of quantification (LOQ) were as follow: threitol:0.048 and 0.160 μM; erythritol: 0.026 and 0.089 μM; 1,5-AHG: […]; respectively. Three quality control samples were run with each batch of samples and inter-batch variations expressed as coefficient of variation (CV) were less than 7% for all analytes monitored. Data were collected and analyzed by LabSolution 5.91 software (Shimadzu).
Continuous variables were summarized as median (25th and 75th percentiles), and categorical variables are presented as %. For group comparisons of patient characteristics, Kruskal-Wallis test was performed for numerical data and Chi-Square test for categorical data. […]

[2] = Erythritol intervention study (COSETTE): postprandial plasma erythritol levels; assay type: in vivo, human; details: for hours after ingestion of 30 g
Description: In a fourth study, the first phase of the Erythritol Intervention Study (COSETTE, clinicaltrials.gov number: NCT04731363), prospectively recruited healthy volunteers ingested a standard-size artificially sweetened beverage (300 mL) containing 30 g of erythritol with instructions to consume the drink within 2 minutes, and blood samples were collected at scheduled post-prandial time points for crythritol measurement. For each participant in the erythritol intervention study (n=8), baseline blood samples were first obtained after overnight (≥8 hours) fasting. […] Therefore, participants were given 30 g erythritol dissolved in 300 mL water. Serial venous blood sampling was performed up to 7d after baseline. […]
Stable-isotope-dilution LC/MS/MS was used for quantification of erythritol, threitol, and 1,5-AHG in human and mouse plasma. […] Limit of detection (LOD) and limit of quantification (LOQ) were as follow: threitol:0.048 and 0.160 μM; erythritol: 0.026 and 0.089 μM; 1,5-AHG: […]; respectively. Three quality control samples were run with each batch of samples and inter-batch variations expressed as coefficient of variation (CV) were less than 7% for all analytes monitored. Data were collected and analyzed by LabSolution 5.91 software (Shimadzu).

OC[C@@H](O)[C@H](O)[C@@H](O)CO [xylitol]
toxicity to dogs (dogs): highly toxic

OC[C@@H](O)[C@@H](O)CO [erythritol]
HR with 95% CI ([1]; 3-year MACE per μM of erythritol, adjusted Cox model): 1.16 (1.05-1.30) | Adjusted HR, 3-year MACE ([1]; erythritol Q2 vs Q1, female): 1.82 | Unadjusted HR, 3-year MACE ([1]; erythritol Q2 vs Q1, female): 1.64 | Adjusted HR, 3-year MACE ([1]; erythritol Q2 vs Q1, male): 0.98 | Unadjusted HR, 3-year MACE ([1]; erythritol Q2 vs Q1, male): 1.22 | Adjusted HR, 3-year MACE ([1]; erythritol Q3 vs Q1, female): 1.66 | Unadjusted HR, 3-year MACE ([1]; erythritol Q3 vs Q1, female): 1.67 | Adjusted HR, 3-year MACE ([1]; erythritol Q3 vs Q1, male): 0.93 | Unadjusted HR, 3-year MACE ([1]; erythritol Q3 vs Q1, male): 2.09 | Adjusted HR, 3-year MACE ([1]; erythritol Q4 vs Q1, female): 2.27 (0.75-6.82) | Unadjusted HR, 3-year MACE ([1]; erythritol Q4 vs Q1, female): 3.77 (1.61-8.80) | Adjusted HR, 3-year MACE ([1]; erythritol Q4 vs Q1, male): 2.37 | Unadjusted HR, 3-year MACE ([1]; erythritol Q4 vs Q1, male): 4.92 | increase in the adjusted HR for MACE ([1]; per 1 μM increase in erythritol levels): 16% | Q4 vs. Q1 HR (95% CI), 3-year MACE ([1]; subgroup Age <70): 3.08 (1.22-7.78) | Q4 vs. Q1 HR (95% CI), 3-year MACE ([1]; subgroup Age ≥70): 3.49 (2.12-5.73) | Q4 vs. Q1 HR (95% CI), 3-year MACE ([1]; subgroup CAD): 4.22 (2.58-6.89) | Q4 vs. Q1 HR (95% CI), 3-year MACE ([1]; subgroup Diabetes): 5.16 (2.4-11.1) | Q4 vs. Q1 HR (95% CI), 3-year MACE ([1]; subgroup Female): 3.77 (1.61-8.80) | Q4 vs. Q1 HR (95% CI), 3-year MACE ([1]; subgroup GFR <60 ml/min/1.73 m^3): 5.25 (2.82-9.76) | Q4 vs. Q1 HR (95% CI), 3-year MACE ([1]; subgroup GFR ≥60 ml/min/1.73 m^3): 2.38 (1.32-4.31) | Q4 vs. Q1 HR (95% CI), 3-year MACE ([1]; subgroup HDL-c <40 mg/dL): 4.15 (1.91-8.99) | Q4 vs. Q1 HR (95% CI), 3-year MACE ([1]; subgroup HDL-c ≥40 mg/dL): 4.28 (2.4-7.62) | Q4 vs. Q1 HR (95% CI), 3-year MACE ([1]; subgroup HbA1C <5.7%): 2.13 (1.06-4.25) | Q4 vs. Q1 HR (95% CI), 3-year MACE ([1]; subgroup HbA1C ≥5.7%): 5.39 (2.96-9.81) | Q4 vs. Q1 HR (95% CI), 3-year MACE ([1]; subgroup Hypertension): 6.08 (1.31-28.1) | Q4 vs. Q1 HR (95% CI), 3-year MACE ([1]; subgroup LDL-c <100 mg/dL): 3.92 (2.25-6.83) | Q4 vs. Q1 HR (95% CI), 3-year MACE ([1]; subgroup LDL-c ≥100 mg/dL): 4.27 (1.94-9.37) | Q4 vs. Q1 HR (95% CI), 3-year MACE ([1]; subgroup Male): 4.92 (2.89-8.35) | Q4 vs. Q1 HR (95% CI), 3-year MACE ([1]; subgroup No CAD): 5.97 (1.75-20.4) | Q4 vs. Q1 HR (95% CI), 3-year MACE ([1]; subgroup No Diabetes): 2.96 (1.72-5.10) | Q4 vs. Q1 HR (95% CI), 3-year MACE ([1]; subgroup No Hypertension): 4.97 (3.05-8.09) | Q4 vs. Q1 HR (95% CI), 3-year MACE ([1]; subgroup No Prior MI): 3.48 (1.77-6.87) | Q4 vs. Q1 HR (95% CI), 3-year MACE ([1]; subgroup Prior MI): 4.69 (2.54-8.66) | Q4 vs. Q1 HR (95% CI), 3-year MACE ([1]; subgroup Triglycerides <150): 3.71 (1.93-7.14) | Q4 vs. Q1 HR (95% CI), 3-year MACE ([1]; subgroup Triglycerides ≥150): 3.85 (1.50-9.87) | elevation of plasma erythritol over baseline [2]: 1000 fold
